Measurements taken from patent US20080292584A1 (priority 2005, published 2008).
Several values for one entry are separate records, joined by “and”; a condition that tells them apart may be missing. Equal values may be shown once.

Key:
CYP2A6 = biological target: T1, CYP2A6 (Homo sapiens, UniProt P11509); assay: Metabolism of metaxalone by expressed recombinant human CYP2A6 (Example 1); details: 30 min;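 also: expressed P450 incubations started with NADPH regenerating system, 0.5 mL final volume, compared against metabolic negative controls, with background signal estimated from matrix controls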
T1 sequence (P11509 1-494): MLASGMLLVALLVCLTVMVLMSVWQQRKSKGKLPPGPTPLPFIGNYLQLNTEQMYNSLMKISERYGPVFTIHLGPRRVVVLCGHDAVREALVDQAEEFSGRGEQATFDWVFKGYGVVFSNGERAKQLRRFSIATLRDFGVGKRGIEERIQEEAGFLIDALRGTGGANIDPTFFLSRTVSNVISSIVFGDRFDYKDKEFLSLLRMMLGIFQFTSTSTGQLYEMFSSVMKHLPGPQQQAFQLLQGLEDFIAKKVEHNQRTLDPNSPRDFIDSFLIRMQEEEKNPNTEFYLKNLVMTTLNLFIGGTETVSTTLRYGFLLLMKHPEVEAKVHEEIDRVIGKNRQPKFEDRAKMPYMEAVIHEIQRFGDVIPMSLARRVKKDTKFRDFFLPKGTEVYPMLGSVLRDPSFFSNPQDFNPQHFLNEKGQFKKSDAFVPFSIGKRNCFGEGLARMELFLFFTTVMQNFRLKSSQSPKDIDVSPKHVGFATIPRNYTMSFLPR
Method: (§1) Commercially available microsomes from baculovirus-infected insect cells containing singly-expressed recombinant wild-type (*1 allele) human CYP enzymes and cDNA-expressed human cytochrome p450 oxidoreductase [BD SUPERSOMES Enzymes; BD Biosciences Discovery Labware (Woburn, Mass.)] were used.
(§2) After a 5-minute pre-incubation, an NADPH regenerating system (NRS) was added to the incubation mixtures to initiate reactions, with a final incubation volume of 0.5 mL. Incubations were continued for 30 minutes, and then terminated, except for those for CYP2C19, which were incubated for 36 minutes prior to termination.
(§3) Matrix controls were performed to determine the background signal from the matrix components (microsomes (10 pmol p450), 01N Tris buffer, NRS, and 1% methanol). […] After a 5-minute pre-incubation, 2% sodium bicarbonate solution was added to the incubation mixtures. Incubation was for 30 minutes at a final volume of 0.5 mL. Matrix and metabolic negative controls were terminated by adding an equal volume of methanol. […] Analysis of samples was subsequent to storage at −70° C.

CYP2E1 [1] = biological target: T2, CYP2E1 (Homo sapiens, UniProt P05181); assay: Inhibition of CYP2E1 activity in pooled human liver microsomes (chlorzoxazone 50 μM to 6-hydroxy chlorzoxazone); format: in vitro ADME; parameters: host or cells: cryopreserved primary human hepatocytes from three donors
Method: All other incubations were for 30 minutes.
Four replicates were performed.
Two replicates were performed.

human CYP1A2 = biological target: T3, human CYP1A2 (Homo sapiens, UniProt P05177); assay: Metabolism of metaxalone by expressed recombinant human CYP1A2 (disappearance of metaxalone, HPLC; Example 1); details: 30 min;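 also: recombinant CYP1A2 microsomes (10 pmol P450) in Tris buffer containing 1% methanol, reactions driven by an NADPH regenerating system, 0.5 mL incubations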
T3 sequence (P05177 2-516 limits assumed): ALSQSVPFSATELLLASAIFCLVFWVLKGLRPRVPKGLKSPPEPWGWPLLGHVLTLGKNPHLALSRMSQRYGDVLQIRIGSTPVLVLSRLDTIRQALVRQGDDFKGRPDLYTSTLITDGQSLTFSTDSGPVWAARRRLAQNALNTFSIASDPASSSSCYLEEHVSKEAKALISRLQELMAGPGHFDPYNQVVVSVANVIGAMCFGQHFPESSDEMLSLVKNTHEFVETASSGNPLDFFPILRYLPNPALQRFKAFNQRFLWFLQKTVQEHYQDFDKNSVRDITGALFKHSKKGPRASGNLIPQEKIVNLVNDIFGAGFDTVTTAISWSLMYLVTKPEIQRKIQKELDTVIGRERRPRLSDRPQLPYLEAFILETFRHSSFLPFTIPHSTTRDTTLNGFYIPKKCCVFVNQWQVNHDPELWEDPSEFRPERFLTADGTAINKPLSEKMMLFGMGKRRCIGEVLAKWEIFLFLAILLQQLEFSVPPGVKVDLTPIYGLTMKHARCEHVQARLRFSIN
Method: as §1, §2, §3

[2] = in vivo; Bruce et al. 1966; cited from earlier work
CYP2D6 = CYP2D6 (Homo sapiens, UniProt P10635); assay: Metabolism of metaxalone by expressed recombinant human CYP2D6 (Example 1); details: 30 min;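 also: reactions in 0.5 mL were started by adding an NADPH regenerating system after 5 min preincubation, with background signal estimated from controls containing only matrix components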
Method: as §1, §2, §3

CYP2E1 [3] = biological target: T2, CYP2E1; assay: Chemical inhibition of metaxalone turnover in human liver microsomes, CYP2E1 inhibitor clomethiazole; details: 1 mg/mL HLM, 60 min, with clomethiazole; for % Turnover / % inhibition of turnover / Conc.: single replicates
Method: Human liver microsomes pooled from 15 individuals (male and female) (Pool HMMC-PL020; CellzDirect, Inc., In Vitro Products and Services Division) were used in some experiments of this study.
% Turnover=100−{[TA(final)]/[mean of TA(0 min)]}×100,
% Inhibition of Turnover=100{1−([TA(0 min)]−[TA(final-inhibitor)])/([TA(0 min)]−[TA(final-no inhibitor)])}.
The inhibitors or vehicle control were incubated with the pooled human liver microsomes (1 mg/mL) and NADPH (1 mM) in 0.1 M phosphate buffer, pH 7.4. […] Incubations were conducted in triplicate and terminated by addition of organic solvent. Samples were extracted and analyzed by LC-MS/MS as described above.

T2 sequence (P05181 whole entry): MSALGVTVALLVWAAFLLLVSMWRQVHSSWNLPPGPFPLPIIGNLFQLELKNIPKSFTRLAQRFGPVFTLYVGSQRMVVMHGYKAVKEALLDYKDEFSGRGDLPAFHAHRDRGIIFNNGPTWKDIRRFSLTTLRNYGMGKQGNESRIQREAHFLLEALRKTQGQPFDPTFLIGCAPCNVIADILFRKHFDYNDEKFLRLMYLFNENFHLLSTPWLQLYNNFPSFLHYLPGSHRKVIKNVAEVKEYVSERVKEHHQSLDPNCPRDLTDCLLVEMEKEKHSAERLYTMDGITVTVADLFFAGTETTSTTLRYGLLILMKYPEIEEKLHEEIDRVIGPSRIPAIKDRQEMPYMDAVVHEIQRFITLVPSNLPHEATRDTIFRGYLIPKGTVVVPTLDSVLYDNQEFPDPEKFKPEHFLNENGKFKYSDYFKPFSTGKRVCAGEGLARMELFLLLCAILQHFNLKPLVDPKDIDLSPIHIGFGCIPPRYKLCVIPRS
Sequence of CYP2D6 (P10635 whole entry): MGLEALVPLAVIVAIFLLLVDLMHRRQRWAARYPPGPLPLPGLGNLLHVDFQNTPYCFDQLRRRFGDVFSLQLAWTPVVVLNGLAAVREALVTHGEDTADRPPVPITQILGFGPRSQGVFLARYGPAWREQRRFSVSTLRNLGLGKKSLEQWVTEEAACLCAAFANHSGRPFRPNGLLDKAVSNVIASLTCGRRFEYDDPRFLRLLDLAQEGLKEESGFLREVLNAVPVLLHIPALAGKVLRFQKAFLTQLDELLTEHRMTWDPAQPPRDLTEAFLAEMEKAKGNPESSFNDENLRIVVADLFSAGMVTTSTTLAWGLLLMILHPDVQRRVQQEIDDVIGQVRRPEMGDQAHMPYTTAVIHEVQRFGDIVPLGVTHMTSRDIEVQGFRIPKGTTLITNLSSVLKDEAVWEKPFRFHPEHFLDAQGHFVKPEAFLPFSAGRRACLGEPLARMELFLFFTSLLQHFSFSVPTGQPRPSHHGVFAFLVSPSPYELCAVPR

In the case of `Cc1cc(C)cc(OCC2CNC(=O)O2)c1` (stereo not drawn) [metaxalone, 5-[(3,5-dimethylphenoxy)methyl]-2-oxazolidinone], the “Metaxalone Present Adjusted Individual” value (CYP2A6; metaxalone 0.5 μM) is reported as 0.309 µM and 0.302 µM and 0.285 µM, the “Metaxalone Present Adjusted Mean ± SD” value (CYP2A6; metaxalone 0.5 μM) is reported as 0.299 ± 0.0124 µM and the “Metaxalone Present Raw” value (CYP2A6; metaxalone 0.5 μM) is reported as 0.1546 µM and 0.1511 µM and 0.1425 µM. The “Percent of Metabolic Negative Control Individual” value (CYP2A6; metaxalone 0.5 μM) was 99.5% and 97.2% and 91.7%, the “Percent of Metabolic Negative Control Mean ± SD” value (CYP2A6; metaxalone 0.5 μM) was 96.1 ± 3.99% and the “Metaxalone Present Adjusted Individual” value (CYP2A6; metaxalone 2.5 μM) was 1.58 µM and 1.60 µM and 1.65 µM. For the same compound, the “Metaxalone Present Adjusted Mean ± SD” value (CYP2A6; metaxalone 2.5 μM) was 1.61 ± 0.0373 µM, the “Metaxalone Present Raw” value (CYP2A6; metaxalone 2.5 μM) was 0.7913 µM and 0.7979 µM and 0.8264 µM and the “Percent of Metabolic Negative Control Individual” value (CYP2A6; metaxalone 2.5 μM) was 104% and 105% and 109%. The “Percent of Metabolic Negative Control Mean ± SD” value (CYP2A6; metaxalone 2.5 μM) was 106 ± 2.46%, the “Metaxalone Present Adjusted Individual” value (CYP2A6; metaxalone 25 μM) was 15.5 μM and 15.7 μM (2×) and the “Metaxalone Present Adjusted Mean ± SD” value (CYP2A6; metaxalone 25 μM) was 15.6 ± 0.0975 µM. For the same compound, the “Metaxalone Present Raw” value (CYP2A6; metaxalone 25 μM) was 7.764 µM and 7.85 µM and 7.846 µM, the “Percent of Metabolic Negative Control Individual” value (CYP2A6; metaxalone 25 μM) was 101% and 102% (2×) and the “Percent of Metabolic Negative Control Mean ± SD” value (CYP2A6; metaxalone 25 μM) was 102 ± 0.636%. For the same compound, the “inhibition of CYP activity at a statistically significant level” value (CYP2E1 [1]; 0.3-100 μM metaxalone, p≦0.05) was “inhibited”, the Inhibitor (CYP2E1 [1]; CYP isozyme 2E1, summary of studies) was “+” and the inhibition at 30 min, 100 μM (CYP2E1 [1]; human, pooled human liver microsomes, probe chlorzoxazone 50 μM (to 6-hydroxy chlorzoxazone)) was 12.8%. For the same compound, the “Percent of VC” value (CYP2E1 [1]; metaxalone 0.3 μM) was 83.3%, the “Specific Activity Individual” value (CYP2E1 [1]; metaxalone 0.3 μM) was 196 pmol/min/mg protein and 187 pmol/min/mg protein and 185 pmol/min/mg protein and the “Specific Activity Mean ± SD” value (CYP2E1 [1]; metaxalone 0.3 μM) was 189 ± 6.08 pmol/min/mg protein. For the same compound, the “Percent of VC” value (CYP2E1 [1]; metaxalone 1 μM) was 84.0%, the “Specific Activity Individual” value (CYP2E1 [1]; metaxalone 1 μM) was 194 pmol/min/mg protein (2×) and 185 pmol/min/mg protein and the “Specific Activity Mean ± SD” value (CYP2E1 [1]; metaxalone 1 μM) was 191 ± 5.18 pmol/min/mg protein. The “Percent of VC” value (CYP2E1 [1]; metaxalone 3 μM) was 88.6%, the “Specific Activity Individual” value (CYP2E1 [1]; metaxalone 3 μM) was 203 pmol/min/mg protein (2×) and 198 pmol/min/mg protein and the “Specific Activity Mean ± SD” value (CYP2E1 [1]; metaxalone 3 μM) was 201 ± 2.94 pmol/min/mg protein. The “Percent of VC” value (CYP2E1 [1]; metaxalone 30 μM) was 86.1%, the “Specific Activity Individual” value (CYP2E1 [1]; metaxalone 30 μM) was 191 pmol/min/mg protein and 199 pmol/min/mg protein and 197 pmol/min/mg protein and the “Specific Activity Mean ± SD” value (CYP2E1 [1]; metaxalone 30 μM) was 196 ± 3.88 pmol/min/mg protein. For the same compound, the “Percent of VC” value (CYP2E1 [1]; metaxalone 100 μM) was 87.2%, the “Specific Activity Individual” value (CYP2E1 [1]; metaxalone 100 μM) was 200 pmol/min/mg protein and 202 pmol/min/mg protein and 193 pmol/min/mg protein and the “Specific Activity Mean ± SD” value (CYP2E1 [1]; metaxalone 100 μM) was 198 ± 4.66 pmol/min/mg protein. The “Metaxalone Present Adjusted Individual” value (human CYP1A2; metaxalone 0.5 μM) was 0.302 µM and 0.440 µM and 0.315 µM, the “Metaxalone Present Adjusted Mean ± SD” value (human CYP1A2; metaxalone 0.5 μM) was 0.352 ± 0.0761 µM and the “Metaxalone Present Raw” value (human CYP1A2; metaxalone 0.5 μM) was 0.1509 µM and 0.2198 µM and 0.1573 µM. The “Percent of Metabolic Negative Control Individual” value (human CYP1A2; metaxalone 0.5 μM) was 77.1% and 112% and 80.4%, the “Percent of Metabolic Negative Control Mean ± SD” value (human CYP1A2; metaxalone 0.5 μM) was 89.9 ± 19.4% and the “Metaxalone Present Adjusted Individual” value (human CYP1A2; metaxalone 2.5 μM) was 1.05 µM and 1.06 µM and 1.08 µM. For the same compound, the “Metaxalone Present Adjusted Mean ± SD” value (human CYP1A2; metaxalone 2.5 μM) was 1.07 ± 0.0167 µM, the “Metaxalone Present Raw” value (human CYP1A2; metaxalone 2.5 μM) was 0.527 µM and 0.5291 µM and 0.5423 µM and the “Percent of Metabolic Negative Control Individual” value (human CYP1A2; metaxalone 2.5 μM) was 79.5% and 79.8% and 81.8%. The “Percent of Metabolic Negative Control Mean ± SD” value (human CYP1A2; metaxalone 2.5 μM) was 80.4 ± 1.26%, the “Metaxalone Present Adjusted Individual” value (human CYP1A2; metaxalone 25 μM) was 16.4 μM (2×) and 17.0 μM and the “Metaxalone Present Adjusted Mean ± SD” value (human CYP1A2; metaxalone 25 μM) was 16.6 ± 0.337 µM. For the same compound, the “Metaxalone Present Raw” value (human CYP1A2; metaxalone 25 μM) was 8.205 µM and 8.192 µM and 8.49 µM, the “Percent of Metabolic Negative Control Individual” value (human CYP1A2; metaxalone 25 μM) was 82.8% and 82.6% and 85.6% and the “Percent of Metabolic Negative Control Mean ± SD” value (human CYP1A2; metaxalone 25 μM) was 83.7 ± 1.70%. For the same compound, the “metaxalone converted to a carboxylic acid derivative” value [2] was 27%, the “Metaxalone Present Adjusted Individual” value (CYP2D6; metaxalone 0.5 μM) was 0.374 µM and 0.297 µM and 0.286 µM and the “Metaxalone Present Adjusted Mean ± SD” value (CYP2D6; metaxalone 0.5 μM) was 0.319 ± 0.0477 µM. For the same compound, the “Metaxalone Present Raw” value (CYP2D6; metaxalone 0.5 μM) was 0.1868 µM and 0.1486 µM and 0.1431 µM, the “Percent of Metabolic Negative Control Individual” value (CYP2D6; metaxalone 0.5 μM) was 128% and 102% and 98.0% and the “Percent of Metabolic Negative Control Mean ± SD” value (CYP2D6; metaxalone 0.5 μM) was 109 ± 16.3%. For the same compound, the “Metaxalone Present Adjusted Individual” value (CYP2D6; metaxalone 2.5 μM) was 1.52 µM and 1.54 µM and 1.53 µM, the “Metaxalone Present Adjusted Mean ± SD” value (CYP2D6; metaxalone 2.5 μM) was 1.53 ± 0.0111 µM and the “Metaxalone Present Raw” value (CYP2D6; metaxalone 2.5 μM) was 0.7583 µM and 0.7685 µM and 0.767 µM. The “Percent of Metabolic Negative Control Individual” value (CYP2D6; metaxalone 2.5 μM) was 96.9% and 98.2% and 98.0%, the “Percent of Metabolic Negative Control Mean ± SD” value (CYP2D6; metaxalone 2.5 μM) was 97.7 ± 0.707% and the “Metaxalone Present Adjusted Individual” value (CYP2D6; metaxalone 25 μM) was 19.1 µM and 19.7 µM and 18.9 µM. The “Metaxalone Present Adjusted Mean ± SD” value (CYP2D6; metaxalone 25 μM) was 19.2 ± 0.436 µM, the “Metaxalone Present Raw” value (CYP2D6; metaxalone 25 μM) was 9.526 µM and 9.845 µM and 9.429 µM and the “Percent of Metabolic Negative Control Individual” value (CYP2D6; metaxalone 25 μM) was 99.2% and 103% and 98.2%. For the same compound, the “Percent of Metabolic Negative Control Mean ± SD” value (CYP2D6; metaxalone 25 μM) was 99.9 ± 2.27%, the “% inhibition of turnover Mean” value (CYP2E1 [3]; 0.75 μM metaxalone) was 113% and the “Mean Conc.” value (CYP2E1 [3]; 0.75 μM metaxalone) was 0.802 µM. For the same compound, the “% Turnover” value (CYP2E1 [3]; 0.75 μM metaxalone) was 5.6%, the “% inhibition of turnover” value (CYP2E1 [3]; 0.75 μM metaxalone) was 104% and 154% and 81.4% and the “Conc.” value (CYP2E1 [3]; 0.75 μM metaxalone) was 0.780 µM and 0.896 µM and 0.729 µM. For the same compound, the “% Turnover Mean” value (CYP2E1 [3]; 7.5 μM metaxalone) was 0.356%, the “% inhibition of turnover Mean” value (CYP2E1 [3]; 7.5 μM metaxalone) was 98.6% and the “Mean Conc.” value (CYP2E1 [3]; 7.5 μM metaxalone) was 8.48 µM. For the same compound, the “% Turnover” value (CYP2E1 [3]; 7.5 μM metaxalone) was 2.7%, the “% inhibition of turnover” value (CYP2E1 [3]; 7.5 μM metaxalone) was 89.2% and 101% and 105% and the “Conc.” value (CYP2E1 [3]; 7.5 μM metaxalone) was 8.29 µM and 8.54 µM and 8.63 µM.
